These results are taken from US12319736B2, “Combination of antibody-drug conjugate and immune checkpoint inhibitor” (DAIICHI SANKYO COMPANY, LIMITED, priority 2016, dated 2025).

In experiment [1] the test system is CT26.WT-hHER2 cells. The experiment in a line: Analysis of in vitro cancer cells treated with different compounds, MHC class I (Evaluation Example 17). It counts as cell-based, mouse. Particulars: 20 nM, 100 nM, 500 nM; vs control group, Dunnett's test; agents: compound (A), DM1-SMe, DM4-SMe, MMAE. How it is done:
(§1) To culture solution for CT26.WT-hHER2 cells, the compound (A) was added to a concentration of 0.0625 μM, 0.125 μM, 0.25 μM, 0.5 μM, or 1 μM. For a control, DMSO in a quantity equal to that of the compound (A) was added. After 24 hours, staining was performed by using PE labeled anti-human Her2/neu (340552, Becton Dickinson) and FITC labeled anti-mouse H-2Dd (110606, BioLegend), and expression levels of MHC class I on cancer cells were determined with flow cytometry. Dead cells had been stained with a LIVE/DEAD Fixable Near-IR Dead Cell Stain Kit purchased from Thermo Fisher Scientific, and excluded from the analysis. The mean fluorescence intensity (MFI) of MHC class I was calculated, and MFI for cells treated with an Isotype control was subtracted from the MFI for stained cells, and the resulting value was used as adjusted MFI. Comparison between the control group and the compound (A) group was performed by using Dunnett's test, P values were expressed as numerical values to the fourth decimal place, and values of P<0.05 (two-tailed test) were regarded as significant differences.
Expression levels of MHC class I were determined for cancer cells treated with different compounds. […]

For experiment [2], the system named is bone marrow-derived dendritic cells. The experiment in a line: Effect on in vitro dendritic cells, flow cytometry (Evaluation Example 5). The class given is cell-based, mouse. Particulars: 0.0625-1 μM, 24 hours, compared with DMSO. How it is done:
BALB/c mice were euthanized, and bone marrow cells were then separated from each femur, and cultured with an RPMI 1640 medium containing 10% FBS, 55 μM 2-mercaptoethanol, 100 U/mL penicillin, […], 1 mM sodium pyruvate, 1×non-essential amino acid, 2 mM L-glutamine, and 10 ng/mL mouse GM-CSF for 11 days to induce bone marrow-derived dendritic cells. To the culture solution for the induced dendritic cells, the compound (A) was added to a concentration of 0.0625 μM, 0.125 μM, 0.25 μM, 0.5 μM, or 1 μM. For a control, DMSO in a quantity equal to that of the compound (A) was added. After 24 hours, staining was performed by using a Pacific Blue labeled anti-mouse CD45 Antibody (103126, BioLegend), PE labeled anti-mouse CD86 (B7-2) (553692, Becton Dickinson), APC labeled anti-mouse CD11c (550261, Becton Dickinson), and FITC labeled anti-mouse MHC Class II (I-A/I-E) (11-5321-85, Thermo Fisher Scientific), and analysis was performed by using an FACS Canto II. Dead cells had been stained with a LIVE/DEAD Fixable Near-IR Dead Cell Stain Kit purchased from Thermo Fisher Scientific, and excluded from the analysis.

Experiment [3] has as its system CT26.WT-hHER2 cells. The experiment in a line: Analysis of in vitro cancer cells, MHC class I by flow cytometry (Evaluation Example 8). The class given is cell-based, mouse. Particulars: 0.0625-1 μM, 24 hours, vs DMSO, Dunnett's test. How it is done:
as §1
A general note: Flow cytometry measures light scatter and fluorescence of single cells or particles in a stream.

Another experiment has as its target T1, topoisomerase I (Homo sapiens, UniProt P11387).
T1 sequence (P11387 1-765): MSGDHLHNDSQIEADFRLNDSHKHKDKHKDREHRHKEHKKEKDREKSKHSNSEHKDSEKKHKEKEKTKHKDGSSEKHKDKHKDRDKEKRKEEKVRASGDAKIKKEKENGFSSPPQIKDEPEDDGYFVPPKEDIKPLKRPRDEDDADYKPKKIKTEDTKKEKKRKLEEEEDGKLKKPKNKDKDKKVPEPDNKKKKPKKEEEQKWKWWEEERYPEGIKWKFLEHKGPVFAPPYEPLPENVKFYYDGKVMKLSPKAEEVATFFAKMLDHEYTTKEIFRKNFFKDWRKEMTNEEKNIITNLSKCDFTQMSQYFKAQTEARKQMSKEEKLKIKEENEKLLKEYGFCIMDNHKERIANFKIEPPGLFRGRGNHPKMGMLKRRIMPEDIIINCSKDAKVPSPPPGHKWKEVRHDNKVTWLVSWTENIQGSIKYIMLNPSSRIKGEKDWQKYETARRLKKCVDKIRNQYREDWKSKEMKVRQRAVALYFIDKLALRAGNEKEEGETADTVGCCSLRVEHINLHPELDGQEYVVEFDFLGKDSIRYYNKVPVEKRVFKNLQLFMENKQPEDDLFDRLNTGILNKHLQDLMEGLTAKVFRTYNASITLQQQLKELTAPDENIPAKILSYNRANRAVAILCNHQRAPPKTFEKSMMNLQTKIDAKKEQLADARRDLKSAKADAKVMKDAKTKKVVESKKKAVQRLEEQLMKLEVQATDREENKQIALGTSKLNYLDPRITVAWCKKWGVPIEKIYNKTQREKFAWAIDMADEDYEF
Particulars: Ogitani Y. et al., Clinical Cancer Research 2016; cited from earlier work.

Regarding `CC[C@@]1(O)C(=O)OCc2c1cc1n(c2=O)Cc2c-1nc1cc(F)c(C)c3c1c2[C@@H](NC(=O)CO)CC3` [compound (A)], the “expression level of MHC class I on CT26.WT-hHER2 cells” value in the experiment with CT26.WT-hHER2 cells [1] was “maximum elevation effect”. For the same compound, in experiment [2], the “expression level of CD86 on CD11c-positive cells” value was “elevated” and the “expression level of MHC class II on CD11c-positive cells” value is “elevated”. Further, the “expression level of MHC class I on CT26.WT-hHER2 cells (adjusted MFI)” value with CT26.WT-hHER2 cells [3] is “significantly elevated”. Also, the “topoisomerase I inhibitory effect” value at topoisomerase I is given as “confirmed to have a topoisomerase I inhibitory effect”.
